A short description of data set [1]: Solubility in 0.01 M sodium phosphate buffer at pH = 7.4. Type of data set: physicochemical.
The target in data set [2] is T1, Neutrophil elastase (Homo sapiens, UniProt P08246).
T1 sequence (P08246 whole entry): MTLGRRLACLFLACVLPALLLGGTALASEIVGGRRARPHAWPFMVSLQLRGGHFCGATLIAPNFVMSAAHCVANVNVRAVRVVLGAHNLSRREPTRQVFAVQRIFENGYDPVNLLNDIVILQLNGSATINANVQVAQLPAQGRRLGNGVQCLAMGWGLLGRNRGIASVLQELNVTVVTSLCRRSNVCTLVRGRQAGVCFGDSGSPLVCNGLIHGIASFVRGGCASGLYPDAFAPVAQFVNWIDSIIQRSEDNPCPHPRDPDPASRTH
As to the kind of experiment: Inhibition of Human Neutrophil Elastase-catalyzed hydrolysis of the synthetic substrate MeO-Suc-Ala-Ala-Pro-Val-p- nitroanilide.

Converted amounts (≈) assume the structure as drawn. Bounds are passed on as bounds.

What is called solubility is the dissolved amount per volume that the medium holds. A high value points to a readily soluble substance. What is called Ki is a measure of affinity in units of concentration, obtained from inhibition or displacement. Read a high Ki as lower affinity.

The molecule `CC(C)C(NC(=O)Cn1cccc(NC(=O)OCc2ccccc2)c1=O)C(=O)C(F)(F)F` (centres undefined) yielded a solubility in data set [1] of 110 µg/mL (≈ 243 µM).
For `CC(C)[C@@H](NC(=O)Cn1c(-c2ccccc2)cc2c(=O)n(CC(=O)OCc3ccccc3)c(=O)[nH]c2c1=O)C(=O)C(F)(F)F`, the Ki in data set [2] worked out at 2.8 nM.
`CC(=O)Cn1c(=O)[nH]c2c(=O)n(CC(=O)NC(C(=O)C(F)(F)F)C(C)C)ccc2c1=O` (centres undefined): in data set [2], the affinity corresponds to a Ki of 310 nM.
For `CC(C)C(NC(=O)Cn1c(-c2ccccc2)cc2c(O)nc(O)nc2c1=O)C(=O)C(F)(F)F` (centres undefined), the solubility in data set [1] is 220 µg/mL (≈ 474 µM). The same molecule yielded an inhibitory constant (Ki) in data set [2] of 15 nM.
Molecule `COC(Cn1c(=O)[nH]c2c(=O)n(CC(=O)NC(C(=O)C(F)(F)F)C(C)C)c(-c3ccccc3)cc2c1=O)OC` (centres undefined) gave a solubility in data set [1] of 420 µg/mL (≈ 760 µM). The molecule further had a Ki in data set [2] of 12 nM.
The corresponding values for `CC(C)C(NC(=O)Cn1ccc2c(=O)n(Cc3ccccc3)c(=O)[nH]c2c1=O)C(=O)C(F)(F)F` (centres undefined) are 730 µg/mL (≈ 1530 µM) and 160 nM.
With `CC(C)[C@@H](NC(=O)Cn1c(-c2ccccc2)cc2c(=O)n(CC(N)=O)c(=O)[nH]c2c1=O)C(=O)C(F)(F)F`, the solubility in data set [1] turned out to be 130 µg/mL (≈ 249 µM). In data set [2], the Ki stood at 15 nM.
For the molecule `CC(C)C(NC(=O)Cn1ccc2c(=O)n(CCc3ccccc3)c(=O)[nH]c2c1=O)C(=O)C(F)(F)F` (centres undefined), in data set [2], the affinity, expressed as Ki, was 42 nM. In other words, the double-digit nanomolar range.
For `CC(C)C(NC(=O)Cn1c(-c2ccccc2)cc2c(=O)n(C)c(=O)[nH]c2c1=O)C(=O)C(F)(F)F` (centres undefined), the concentration in solution in data set [1] (solubility) came to 44 µg/mL (≈ 92 µM). The Ki in data set [2] was determined as 10 nM.
Take `COc1ccc(Cn2c(=O)[nH]c3c(=O)n(CC(=O)NC(C(=O)C(F)(F)F)C(C)C)c(-c4ccccc4)cc3c2=O)cc1` (centres undefined): the solubility in data set [1] turned out to be 230 µg/mL (≈ 393 µM). For the same molecule, the Ki in data set [2] was found to be 5.7 nM.
As to `COC(=O)Cn1c(=O)[nH]c2c(=O)n(CC(=O)N[C@@H](C(=O)C(F)(F)F)C(C)C)ccc2c1=O`, in data set [2], the Ki came to 490 nM.
In data set [1], `CCOCCn1c(=O)[nH]c2c(=O)n(CC(=O)NC(C(=O)C(F)(F)F)C(C)C)c(-c3ccccc3)cc2c1=O` (centres undefined) returned a solubility of 8 µg/mL (≈ 14.9 µM). Moreover, the affinity in data set [2] corresponds to a Ki of 7.5 nM.
Consider `CC(C)[C@@H](NC(=O)Cn1ccc2c(=O)n(CC(=O)OC(C)(C)C)c(=O)[nH]c2c1=O)C(=O)C(F)(F)F`, for which the Ki in data set [2] was determined as 290 nM. That is a sub-micromolar value.
Same read-out and setting: with `CC(C)C(NC(=O)Cn1ccc2c(=O)n(Cc3cccc4ccccc34)c(=O)[nH]c2c1=O)C(=O)C(F)(F)F` (centres undefined) the figure was 26 nM; with `CC(C)C(NC(=O)Cn1ccc2c(=O)n(CC(=O)c3ccccc3)c(=O)[nH]c2c1=O)C(=O)C(F)(F)F` (centres undefined), 74 nM.
Molecule `CC(C)C(NC(=O)Cn1c(-c2ccccc2)cc2c(=O)n(CCN3CCOCC3)c(=O)[nH]c2c1=O)C(=O)C(F)(F)F` (centres undefined) had a solubility in data set [1] of 300 µg/mL (≈ 519 µM). For the same molecule, in data set [2], the affinity corresponds to a Ki of 8.4 nM.
The molecule `CC(C)C(NC(=O)Cn1ccc2c(=O)n(C(C)(C)Cc3ccccc3)c(=O)[nH]c2c1=O)C(=O)C(F)(F)F` (centres undefined) had an inhibition constant (Ki) in data set [2] of 16 nM. In other words, the double-digit nanomolar range.
In data set [2], `CC(C)C(NC(=O)Cn1ccc2c(=O)n(C)c(=O)[nH]c2c1=O)C(=O)C(F)(F)F` (centres undefined) yielded an inhibitory constant (Ki) of 620 nM.
In data set [1], `CNC(=O)Cn1c(=O)[nH]c2c(=O)n(CC(=O)NC(C(=O)C(F)(F)F)C(C)C)c(-c3ccccc3)cc2c1=O` (centres undefined) yielded a solubility of 100 µg/mL (≈ 187 µM). Also, in data set [2], the Ki is 22 nM.
With `CC(C)C(NC(=O)Cn1ccc2c(=O)n(CCN3CCOCC3)c(=O)[nH]c2c1=O)C(=O)C(F)(F)F` (centres undefined), the Ki in data set [2] stood at 330 nM.
As for `CC(C)C(NC(=O)Cn1ccc2c(=O)n(CCc3cccc4ccccc34)c(=O)[nH]c2c1=O)C(=O)C(F)(F)F` (centres undefined), the affinity in data set [2] corresponds to a Ki of 21 nM.
`CC(C)[C@@H](NC(=O)Cn1ccc2c(=O)n(CC(=O)O)c(=O)[nH]c2c1=O)C(=O)C(F)(F)F` returned a Ki in data set [2] of 690 nM.
In data set [2], `CC(C)C(NC(=O)Cn1c(-c2ccccc2)cc2c(=O)n(CC(=O)NCc3ccccc3)c(=O)[nH]c2c1=O)C(=O)C(F)(F)F` (centres undefined) yielded a Ki of 9.9 nM.
With `CC(C)C(NC(=O)Cn1ccc2c(=O)[nH]c(=O)[nH]c2c1=O)C(=O)C(F)(F)F` (centres undefined), in data set [1], the solubility is > 5000 µg/mL. The inhibition constant Ki in data set [2] worked out at 910 nM.
In data set [2], `CC(C)C(NC(=O)Cn1ccc2c(=O)n([C@H]3C[C@@H]3c3ccccc3)c(=O)[nH]c2c1=O)C(=O)C(F)(F)F` (some centres undefined) registered a Ki of 230 nM.
In data set [2], `CC(C)C(NC(=O)Cn1ccc2c(=O)n(-c3ccccc3)c(=O)[nH]c2c1=O)C(=O)C(F)(F)F` (centres undefined) showed a Ki of 830 nM.
As for `CC(C)C(NC(=O)Cn1c(-c2ccccc2)cc2c(=O)n(N(C)C)c(=O)[nH]c2c1=O)C(=O)C(F)(F)F` (centres undefined), the solubility in data set [1] turned out to be 320 µg/mL (≈ 631 µM). Besides, the Ki in data set [2] was 19 nM.
As for `COc1ccc(Cn2c(=O)[nH]c3c(=O)n(CC(=O)NC(C(=O)C(F)(F)F)C(C)C)ccc3c2=O)cc1` (centres undefined), affinity in data set [2] was put at a Ki of 100 nM. This lies in the sub-micromolar range.

For the origin of these results see ChEMBL document CHEMBL1129513, “Nonpeptidic inhibitors of human neutrophil elastase. 7. Design, synthesis, and in vitro activity of a series of pyridopyrimidine trifluoromethyl ketones” (J Med Chem, 1996).
